≈ marks a conversion by molar mass, not a printed value. Where “and” joins values, the source holds several entries; their conditions need not be identical. Identical values can stand only once.
Legend:
[1] = system: CFCF-induced cAMP levels in ligated-ileal loops; set-up: species or system Swiss albino mice; settings: mouse, in vivo
[2] = system: CFCF induced histopathological changes in ileal loops; set-up: species or system Swiss albino mice; settings: mouse, in vivo
[3] = system: CT-induced cAMP levels in CHO cell line; format: cell-based
[4] = system: CT-induced cell elongation in CHO cell line; format: cell-based
CHO cell line [5] = settings: Chinese hamster
[6] = system: CFCF-induced fluid accumulation in ligated-ileal loops; set-up: species or system Swiss albino mice; settings: mouse, in vivo
in vitro = settings: Chinese hamster
CHO cell line [7] = assay: cells; settings: Cricetulus griseus, 24 h
[8] = target: CT binding to GM1 receptor (Vibrio cholerae serotype O1, UniProt P01556)
Chain of CT binding to GM1 receptor (P01556 22-124 limits assumed): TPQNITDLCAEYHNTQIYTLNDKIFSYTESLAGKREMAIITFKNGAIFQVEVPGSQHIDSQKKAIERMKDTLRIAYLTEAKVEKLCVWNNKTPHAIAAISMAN

CT binding to GM1 = settings: 50mM; cited from earlier work
CT-induced cAMP = settings: 10µg/mL; cited from earlier work
[9] = system: FITC-CTB binding to Vero cells; settings: 10µg/ml; cited from earlier work

Compound	cAMP levels in ligated-ileal tissues [1]	Protection against CFCF induced histopathological changes (inflammation, edema) [2]	Bound percent (B%) of cAMP [3]	Protection against CT-induced cell elongation [4]	NC1 (non-cytotoxic concentration) (CHO cell line [5]) [µg/mL]	NC2 (non-cytotoxic concentration) (CHO cell line [5]) [µg/mL]	viability (CHO cell line [5]) [%]	Mean W/L ratio [6]	Mean weight/length (W/L) ratio of ligated-ileal loops [6]	viability (in vitro) [%]	IC50 (CHO cell line [7]) [µg/mL]	Binding inhibition of CT to GM1 [8] [%]	Binding inhibition percentage (BI%) [8]	Binding inhibition of CT to GM1 (CT binding to GM1) [%]	Decrease in cAMP compared to CT control (CT-induced cAMP) [%]	Inhibition of binding of FITC-CTB to Vero cells [9] [%]
O=C(/C=C/c1ccc(O)c(O)c1)O[C@@H]1C[C@](O)(C(=O)O)C[C@@H](O)[C@H]1O [Chlorogenic acid]	1.18% and 1.89%	substantial protective activity	81% and 78%	greater protective activities	100	50	97.2	0.132 and 0.176	0.132 g/cm and 0.176 g/cm	90.5	398 ± 5.4 (≈ 1120 µM)	> 50	92% and 81%			
O=c1oc2c(O)c(O)cc3c(=O)oc4c(O)c(O)cc1c4c23 [Ellagic acid]	0.62% and 1.31%	substantial protective activity	82% and 81%	greater protective activities	30	15	97.5	0.091 and 0.094	0.091 g/cm and 0.094 g/cm	93.2	116 ± 9.6 (≈ 382 µM)	> 50	97%			
O=C(O)c1cc(O)c(O)c(O)c1 [Gallic acid, reference compound]	1.79% and 3.39%	indistinct amelioration	80% and 60%		25	12.5	97.9	0.222 and 0.188	0.188 g/cm	93.5	103 ± 1.1 (≈ 604 µM)			40	76	23
O=C(CCc1ccc(O)cc1)c1c(O)cc(O)cc1O[C@@H]1O[C@H](CO)[C@@H](O)[C@H](O)[C@H]1O [Phloridzin]			71% and 50%		75	37.5	97.6			94.8	298 ± 3.9 (≈ 683 µM)	> 50				
C[C@@H]1O[C@@H](Oc2c(-c3ccc(O)c(O)c3)oc3cc(O)cc(O)c3c2=O)[C@H](O)[C@H](O)[C@H]1O [Quercetrin, reference compound]			66% and 47%		60	30	96.3			91	234 ± 3.7 (≈ 521 µM)				59	20
C[C@@H]1O[C@@H](OC[C@H]2O[C@@H](Oc3c(-c4ccc(O)c(O)c4)oc4cc(O)cc(O)c4c3=O)[C@H](O)[C@@H](O)[C@@H]2O)[C@H](O)[C@H](O)[C@H]1O [Rutin]			53% and 44%		70	35	97.6			92.4	287 ± 6.9 (≈ 471 µM)		9% and 2%			

Source: paper PMC10126245 (Frontiers in Cellular and Infection Microbiology, 2023)
